Structures are written as SMILES. Where only a bound is given, the exact number is not on record here.

One data set deals with T1, aldose reductase prepared from rat lenses (Rattus norvegicus, UniProt P07943).
T1 construct: aldose reductase prepared from rat lenses; from tissue; host or cells: rat lens
Briefly: Aldose reductase inhibitory activity. The format is biochemical. The note with it: at 5×10^-7 M; glyceraldehyde substrate, NADPH, absorbance at 340 nm; read-out: Inhibitory rate (%) against aldose reductase. On the procedure: Aldose reductase inhibitory activity of the compound of the present invention was evaluated by using aldose reductase prepared from rat lenses. The test compound was added to the reaction mixture consisting of phosphate buffer, NADPH and aldose reductase. After stability of absorbance was confirmed for a few minutes, glyceraldehyde was added to the reaction mixture and then the decrease in absorbance at 340 nm with the passage of time was measured to assay the inhibitory activity of the test compound against aldose reductase.
The inhibitory rate (%) against aldose reductase in the table is the values at 5×10^-7 M of the each test compound.
`CCOC(=O)CN1C(=O)C(=O)N(Cc2cccc([N+](=O)[O-])c2)C1=O` [Compound 19, Ethyl 1-(3-nitrobenzyl)-2,4,5-trioxoimidazolidine-3-acetate]: the inhibition at 0.5 µM was 31%.
Turning to `CCCCCCN1C(=O)C(=O)N(CC(=O)O)C1=O` [Compound 33, 3-Carboxymethyl-1-hexylparabanic acid], the inhibition at 0.5 µM stood at 35%.
As for `CC1CCC(N2C(=O)C(=O)N(CC(=O)O)C2=O)CC1` (stereo not shown) [Compound 34, 3-Carboxymethyl-1-(4-methylcyclohexyl)parabanic acid], the inhibition at 0.5 µM amounted to 49%.
Take `Cc1ccccc1CN1C(=O)C(=O)N(CC(=O)O)C1=O` [Compound 36, 3-Carboxymethyl-1-(2-methylbenzyl)parabanic acid]: the inhibition at 0.5 µM is 41%.
Take `Cc1ccc(CN2C(=O)C(=O)N(CC(=O)O)C2=O)cc1` [Compound 37, 3-Carboxymethyl-1-(4-methylbenzyl)parabanic acid]: the inhibition at 0.5 µM came to 30%.
In the case of `COc1cccc(CN2C(=O)C(=O)N(CC(=O)O)C2=O)c1` [Compound 39, 3-Carboxymethyl-1-(3-methoxybenzyl)parabanic acid], the inhibition at 0.5 µM is 44%.
Same read-out and setting: then `O=C(O)CN1C(=O)C(=O)N(Cc2ccccc2Cl)C1=O` [Compound 41, 3-Carboxymethyl-1-(2-chlorobenzyl)parabanic acid], with 32%; and `O=C(O)CN1C(=O)C(=O)N(Cc2cccc(Cl)c2)C1=O` [Compound 42, 3-Carboxymethyl-1-(3-chlorobenzyl)parabanic acid], with 31%.
On to `O=C(O)CN1C(=O)C(=O)N(Cc2ccc(Cl)cc2)C1=O` [Compound 43, 3-Carboxymethyl-1-(4-chlorobenzyl)parabanic acid], for which the inhibition at 0.5 µM turned out to be 56%.
Consider `O=C(O)CN1C(=O)C(=O)N(Cc2ccc(Br)cc2)C1=O` [Compound 44, 1-(4-Bromobenzyl)-3-carboxymethylparabanic acid], for which the inhibition at 0.5 µM was determined as 65%.
For `O=C(O)CN1C(=O)C(=O)N(Cc2ccc(Cl)cc2Cl)C1=O` [Compound 46, 3-Carboxymethyl-1-(2,4-dichlorobenzyl)parabanic acid], the inhibition at 0.5 µM turned out to be 61%.
`O=C(O)CN1C(=O)C(=O)N(Cc2ccc(Cl)c(Cl)c2)C1=O` [Compound 47, 3-Carboxymethyl-1-(3,4-dichlorobenzyl)parabanic acid]: the inhibition at 0.5 µM turned out to be 75%.
On the same count and under the same terms, then `O=C(O)CN1C(=O)C(=O)N(Cc2cccc([N+](=O)[O-])c2)C1=O` [Compound 48, 3-Carboxymethyl-1-(3-nitrobenzyl)parabanic acid], with 75%.
On the same count and under the same terms, the value for `O=C(O)CN1C(=O)C(=O)N(CCc2ccccc2)C1=O` [Compound 49, 3-Carboxymethyl-1-(2-phenylethyl)parabanic acid] was 30%.
In the case of `Cc1ccc(CCN2C(=O)C(=O)N(CC(=O)O)C2=O)cc1` [Compound 50, 3-Carboxymethyl-1-(2-(4-methylphenyl)ethyl)parabanic acid], the inhibition at 0.5 µM was determined as 42%.
The same measure, in the same setting: then `COc1ccc(CCN2C(=O)C(=O)N(CC(=O)O)C2=O)cc1OC` [Compound 51, 3-Carboxymethyl-1-(2-(3,4-dimethoxyphenyl)ethyl)parabanic acid], with 42%; and `O=C(O)CN1C(=O)C(=O)N(CCc2ccccc2Cl)C1=O` [Compound 52, 3-Carboxymethyl-1-(2-(2-chlorophenyl)ethyl)parabanic acid], with 37%.
On the same count and under the same terms, the value for `O=C(O)CN1C(=O)C(=O)N(CCc2ccc(Br)cc2)C1=O` [Compound 53, 1-(2-(4-Bromophenyl)ethyl)-3-carboxymethylparabanic acid] was 47%.
Consider `O=C(O)CN1C(=O)C(=O)N(CCc2ccc(Cl)c(Cl)c2)C1=O` [Compound 54, 3-Carboxymethyl-1-(2-(3,4-dichlorophenyl)ethyl)parabanic acid], for which the inhibition at 0.5 µM is 57%.
On the same count and under the same terms, the value for `O=C(O)CN1C(=O)C(=O)N(CCc2cccc([N+](=O)[O-])c2)C1=O` [Compound 55, 3-Carboxymethyl-1-(2-(3-nitrophenyl)ethyl)parabanic acid] was 36%; that for `O=C(O)CN1C(=O)C(=O)N(CCCCc2ccccc2)C1=O` [Compound 57, 3-Carboxymethyl-1-(4-phenylbutyl)parabanic acid] was 25%; that for `O=C(O)CN1C(=O)NC(=O)C1=O` [Compound 60, 1-carboxymethylparabanic acid] was 31%.

Tested on in another data set: not listed separately
Briefly: Acute toxicity test (oral, LD50). As to conditions: rat, in vivo, Wistar-strain male rats, groups of 8, death rate of 7 days. As for the experimental part:
The test compounds of the present invention were orally administered to groups of 8 Wistar-strain male rats, and the LD50 values were calculated based on the death rate of 7 days.
Compound `O=C(O)CN1C(=O)C(=O)N(Cc2ccc(Br)cc2)C1=O` [Compound 44, 1-(4-Bromobenzyl)-3-carboxymethylparabanic acid] gave an LD50 at 168 h of over 5000 mg/kg.
On the same count and under the same terms, the value for `O=C(O)CN1C(=O)C(=O)N(Cc2ccc(Cl)c(Cl)c2)C1=O` [Compound 47, 3-Carboxymethyl-1-(3,4-dichlorobenzyl)parabanic acid] was over 2000 mg/kg.
The same measure, in the same setting: the value for `O=C(O)CN1C(=O)C(=O)N(Cc2cccc([N+](=O)[O-])c2)C1=O` [Compound 48, 3-Carboxymethyl-1-(3-nitrobenzyl)parabanic acid] was over 5000 mg/kg.

These data come from patent US4985453A, “Parabanic acid derivatives and pharmaceutical compositions thereof” (Nippon Zoki Pharmaceutical Co., Ltd., priority 1988, dated 1991).
